The subject of experiment [1] is Mycobacterium tuberculosis. The experiment is described as follows: Antibacterial activity against Mycobacterium tuberculosis. It is filed as functional.
For the next experiment, the system named is Chlamydia trachomatis. The experiment is described as follows: Bactericidal activity against Chlamydia trachomatis. It is filed as functional.
A further experiment has as its system Candida albicans. Briefly: Antifungal activity against Candida albicans. It is filed as functional.
Experiment [2] is described as follows: Inhibition of Mycobacterium tuberculosis MetAP1c.
A short description of experiment [3]: Inhibition of Mycobacterium tuberculosis MetAP1a.
The subject of another experiment is Chlamydia. Briefly: Antibacterial activity against Chlamydia. In kind it is functional.
Another experiment relates to Aspergillus. Briefly: Antifungal activity against Aspergillus. In kind it is functional.
Experiment [4] addresses Botulinum neurotoxin type F (Clostridium botulinum, UniProt P30996). Briefly: Inhibition of Botulinum neurotoxins/F.
Experiment [5] is described as follows: Inhibition of Aeromonas proteolytica aminopeptidase. Details: species or system Vibrio proteolyticus.
A further experiment concerns Enterococcus faecalis. Briefly: Antibacterial activity against Enterococcus faecalis. It is filed as functional.
A short description of experiment [6]: Inhibition of Mycobacterium tuberculosis Zmp1.

In brackets after ≈: the same amount, converted by molar mass. A value given as a limit tells only on which side of the number the result lay.

Chain of Botulinum neurotoxin type F (P30996 1-436 limits assumed): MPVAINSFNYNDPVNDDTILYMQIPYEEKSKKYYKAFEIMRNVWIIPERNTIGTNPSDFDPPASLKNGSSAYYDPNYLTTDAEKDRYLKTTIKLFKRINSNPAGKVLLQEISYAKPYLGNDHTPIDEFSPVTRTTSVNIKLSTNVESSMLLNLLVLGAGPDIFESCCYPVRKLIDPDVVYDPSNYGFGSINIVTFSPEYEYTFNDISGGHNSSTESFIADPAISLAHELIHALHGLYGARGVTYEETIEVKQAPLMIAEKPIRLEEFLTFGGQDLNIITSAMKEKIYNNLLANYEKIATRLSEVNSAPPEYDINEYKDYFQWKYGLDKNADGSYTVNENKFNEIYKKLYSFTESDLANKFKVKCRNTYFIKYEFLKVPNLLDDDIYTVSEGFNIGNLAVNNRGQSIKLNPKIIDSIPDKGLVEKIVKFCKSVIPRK

`O=C(O)c1ccc2ccc(/C=C/c3ccccc3Cl)nc2c1O`: in experiment [1], 120 µM (≈ 39.1 µg/mL) was the least that counted as inhibitory (MIC).

Regarding `O=C(O)c1cn(C2CC2)c2cc(N3CCN(C(=O)c4ccc5cccc(O)c5n4)CC3)c(F)cc2c1=O`, in the experiment with Chlamydia trachomatis, the minimal bactericidal concentration (MBC) was determined as 5 µM (≈ 2.51 µg/mL). Turning to `OC(COc1ccccc1)COc1cccc2cccnc12` (stereo unspecified), in experiment [1], it took 42.3 µM (≈ 12.5 µg/mL) to inhibit growth (MIC). As to `N#Cc1ccc(Nc2nc(Oc3cccc4cccnc34)nc(N3CCN(c4ccccn4)CC3)n2)cc1C(F)(F)F`, the figures for the MIC (in experiment [1]; in the experiment with Candida albicans) were 439 µM (≈ 250 µg/mL) and 9.8 µM (≈ 5.58 µg/mL), respectively. For `CC1CC(C)CN(c2nc(Nc3ccc(C#N)c(C(F)(F)F)c3)nc(Oc3cccc4cccnc34)n2)C1` (stereo unspecified), the MIC in experiment [1] worked out at 6 µM (≈ 3.12 µg/mL). Same read-out and setting: to `Oc1cccc2ccc(/C=C/c3ccccc3Cl)nc12` belongs 5.8 µM (≈ 1.63 µg/mL); to `COc1cccc(/C=C/c2ccc3cccc(O)c3n2)c1`, above 200 µM. `O=C(O)c1cn(C2CC2)c2cc(N3CCNCC3)c(F)cc2c1=O` [CIPROFLOXACIN]: the MBC in the experiment on Chlamydia trachomatis is above 50 µM.

`CC(=O)Oc1c(Cl)cc(Cl)c2cccnc12`: the IC50 in experiment [2] amounted to 4.92 µM; in experiment [3] it was 4.87 µM.

Consider `O=C(NNC(c1ccc2cccnc2c1O)c1c[nH]c2ccccc12)c1ccncc1` (stereo unspecified), for which, in experiment [1], the MIC was 122 µM (≈ 50 µg/mL). The same measure, in the same setting: to `CNc1ccc2cccc(O)c2n1` belongs 6.4 µM (≈ 1.11 µg/mL). The compound `O=[N+]([O-])c1cc(CN2CCN(c3ccc(F)cc3)CC2)c(O)c2ncccc12` gave an MBC in the experiment with Chlamydia of 3.13 µM (≈ 1.2 µg/mL). On to `N#Cc1ccc(Nc2nc(Oc3cccc4cccnc34)nc(N3CCN(c4cccc(Cl)c4Cl)CC3)n2)cc1C(F)(F)F`, for which the MIC came to 19.6 µM (≈ 12.5 µg/mL) in experiment [1] and 9.8 µM (≈ 6.25 µg/mL) against Aspergillus. `Oc1cccc2ccc(/C=C/c3cccc(F)c3)nc12`: it took 13 µM (≈ 3.45 µg/mL) to inhibit growth in experiment [1] (MIC). Still for that read-out and setting: to `O=C(NNC(c1ccc2cccnc2c1O)c1c(-c2ccccc2)[nH]c2ccccc12)c1ccncc1` (stereo unspecified) belongs 103 µM (≈ 50 µg/mL). Regarding `Cc1ccnc(NC(c2ccccc2)c2ccc3cccnc3c2O)c1` (stereo unspecified), in [4], the IC50 was 14.9 µM. Still for that read-out and setting: the figure for `O=C(O)c1ccc(NC(c2ccccc2)c2ccc3cccnc3c2O)cc1` (stereo unspecified) is 30.5 µM. Consider `O=C(NCCO[C@@H]1O[C@H](CO)[C@@H](O)[C@H](O)[C@H]1O)c1ccc2cccnc2c1O`, for which it took 10000 µM (≈ 3940 µg/mL) to inhibit growth with Candida albicans (MIC). In experiment [1], `COc1ccc(CNC(=O)c2ccc3ccc(C)nc3c2O)cc1` came in with an MIC above 500 µM.

Compound `Cc1ccc2ccc(C(=O)NCc3ccc(F)cc3)c(O)c2n1` registered an MIC in experiment [1] above 500 µM. As to `Oc1cccc2cccnc12` [OXYQUINOLINE], the Ki in experiment [5] is 0.58 µM.

On to `O=C(CSc1nnc(COc2cccc3cccnc23)n1-c1ccccc1)Nc1nc2cc(F)ccc2s1`, for which the MIC in the experiment on Enterococcus faecalis was determined as 28.8 µM (≈ 15.6 µg/mL). Consider `Cc1ccc2cccc(O)c2n1` [8-HYDROXY QUINALDINE], for which the inhibitory constant (Ki) in [5] is above 100 µM. Still for that read-out and setting: the figure for `CNS(=O)(=O)c1cc(Cl)c2cccnc2c1O` is above 100 µM.

In turn, `O=[N+]([O-])c1cc(CN2CCN(c3ccccc3)CC2)c(O)c2ncccc12` came in with an MBC in the experiment on Chlamydia of 25 µM (≈ 9.11 µg/mL).

The compound `Oc1cccc2ccc(N3CCCCC3)nc12` registered an MIC in [1] above 20 µM. For the compound `O=C(NCCc1ccccc1)c1ccc2cccc(O)c2n1`, the IC50 in experiment [6] is above 10 µM. Regarding `O=C(NCCCc1ccccc1)c1ccc2cccc(O)c2n1`, the half-maximal inhibitory concentration (IC50) in [6] was above 10 µM. `OC(COc1ccc(Cl)cc1)COc1cccc2cccnc12` (stereo unspecified) gave an MIC in experiment [1] of 9.85 µM (≈ 3.25 µg/mL). As to `O=C(O)c1ccc(O)c2ncccc12`, in the experiment on Candida albicans, the MIC was determined as 1250 µM (≈ 236 µg/mL). `O=C(Nc1cccc(Cl)c1)c1ccc2cccc(O)c2n1` displayed an MIC in experiment [1] of 50 µM (≈ 14.9 µg/mL). Consider `COc1ccc(CN2CCN(c3nc(Nc4ccc(C#N)cc4)nc(Oc4cccc5cccnc45)n3)CC2)c(OC)c1OC`, for which the MIC against Aspergillus turned out to be 9.8 µM (≈ 5.93 µg/mL). In experiment [1], `Cc1ccc(CNC(=O)c2ccc3ccc(C)nc3c2O)cc1` showed an MIC above 500 µM. The same measure, in the same setting: to `Cc1ccc2[nH]c(-c3ccccc3)c(C(NNC(=O)c3ccncc3)c3ccc4cccnc4c3O)c2c1` (stereo unspecified) belongs 100 µM (≈ 50 µg/mL); to `O=C(Nc1ccccc1Br)c1ccc2cccc(O)c2n1`, 23 µM (≈ 7.89 µg/mL). The same measure, in the same setting: the figure for `Oc1cccc2ccc(Nc3ccccc3)nc12` is above 20 µM. Consider `Oc1ccc(C(F)(F)F)c2cccnc12`, for which, in [5], affinity was put at a Ki of 0.37 µM. Compound `Oc1c(Cl)cc(Cl)c2ccc(/C=C/c3ccc(/C=C/c4ccc5c(Cl)cc(Cl)c(O)c5n4)cc3)nc12` yielded an MIC in experiment [1] above 72.2 µM. The compound `O=[N+]([O-])c1cc(CN2CCC(c3ccccc3)C2)c(O)c2ncccc12` (stereo unspecified) returned an MBC in the experiment with Chlamydia of 12.5 µM (≈ 4.37 µg/mL). On to `Cc1ccccc1OCC(O)COc1cccc2cccnc12` (stereo unspecified), for which the minimal inhibitory concentration (MIC) in [1] came out at 23.3 µM (≈ 7.21 µg/mL). In experiment [5], `O=[N+]([O-])c1ccc(O)c2ncccc12` [NITROXOLINE] registered an IC50 of 29 µM. As to `Oc1ccc(Cl)c2cccnc12` [CLOXYQUIN], in experiment [5], the Ki came to 0.16 µM. Still for that read-out and setting: to `NS(=O)(=O)c1cc(Cl)c2cccnc2c1O` belongs above 100 µM.

Regarding `O=C(Nc1cccc(C(F)(F)F)c1)c1ccc2cccc(O)c2n1`, it took 24 µM (≈ 7.97 µg/mL) to inhibit growth in experiment [1] (MIC). Same read-out and setting: the figure for `O=C(Nc1ccccc1[N+](=O)[O-])c1ccc2cccc(O)c2n1` is 97 µM (≈ 30 µg/mL).

Take `O=C(NCCO[C@H]1O[C@H](CO)[C@@H](O)[C@H](O)[C@@H]1O)c1ccc2cccnc2c1O`: the lowest concentration to inhibit growth with Candida albicans (MIC) was 10000 µM (≈ 3940 µg/mL).

Take `O=C(Nc1ccc(C(F)(F)F)cc1)c1ccc2cccc(O)c2n1`: in [1], the MIC came out at 24 µM (≈ 7.97 µg/mL). The same measure, in the same setting: the figure for `O=C(NNC(c1ccc2cccnc2c1O)c1c(-c2ccccc2)[nH]c2ccc(Cl)cc12)c1ccncc1` (stereo unspecified) is 24 µM (≈ 12.5 µg/mL). In experiment [6], `C=CCONC(=O)c1ccc2cccc(O)c2n1` registered an IC50 of 0.123 µM.

`O=C(NCCN1OCC(NC(=O)c2ccc3cccc(O)c3n2)C1=O)c1ccc2cccc(O)c2n1` (stereo unspecified) came in with an MBC with Chlamydia trachomatis of 5 µM (≈ 2.44 µg/mL). In experiment [1], `Nc1ccc2cccc(O)c2n1` showed an MIC of 4.6 µM (≈ 0.737 µg/mL). `CC(=O)N1CCN(c2nc(Nc3ccc(C#N)c(C(F)(F)F)c3)nc(Oc3cccc4cccnc34)n2)CC1`: the MIC in [1] stood at 117 µM (≈ 62.5 µg/mL); with Aspergillus, 9.8 µM (≈ 5.24 µg/mL).

With `O=C(NCCO[C@H]1O[C@H](CO)[C@@H](O)[C@H](O)[C@@H]1O)c1ccc(O)c2ncccc12`, the MIC in the experiment on Candida albicans was determined as 5000 µM (≈ 1970 µg/mL).

As for `Clc1cc2c(c3ncccc13)OCN(C1CCCCC1)C2`, the IC50 amounted to 3.76 µM in experiment [2] and 4.3 µM in experiment [3]. In [1], `Cc1ccc2ccc(C(=O)NCc3ccccc3)c(O)c2n1` gave an MIC above 500 µM.

`CONC(=O)c1ccc2cccc(O)c2n1` registered an IC50 in experiment [6] of 0.115 µM.

In general, MIC refers to the smallest concentration in the dilution series that meets the test's criterion for growth inhibition. High values mean a need for much substance, low ones inhibition by little substance. The term MBC denotes the lowest tested concentration that kills the bacteria rather than only halting them. What is called IC50 is the concentration at which inhibition is half-maximal. Read a high IC50 as lower potency. In general, Ki refers to the dissociation constant of the complex between target and ligand, obtained from inhibition or displacement. Read a low Ki as a stronger hold on the target.

Source of the values: ChEMBL document CHEMBL5226349, “Novel Antimicrobial 8-Hydroxyquinoline-Based Agents: Current Development, Structure-Activity Relationships, and Perspectives” (J Med Chem, 2021).
